Experimental data published in ChEMBL document CHEMBL1201862, “PubChem BioAssay data set” (2004).
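Five concentrations, 48 hours, 96-well plates. GI50 marks 50% less growth.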 Active and inactive are the calls of the source. Rule as the data show it: active = GI50 up to about 1.1 µM and inactive = higher.

Key:
Test in all cases: NCI anticancer screen, dose series, 48 h
BT-549 = tested on: BT-549
K562 = tested on: K562
T47D = tested on: T47D
KM12 = tested on: KM12
SF-539 = tested on: SF-539
MDA-MB-231 = tested on: MDA-MB-231
OVCAR-5 = tested on: OVCAR-5
OVCAR-3 = tested on: OVCAR-3
NCI-H23 = tested on: NCI-H23
M14 = tested on: M14
SK-MEL-28 = tested on: SK-MEL-28
HCC 2998 = tested on: HCC 2998
A549 = tested on: A549
SR = tested on: SR
NCI-H226 = tested on: NCI-H226
SNB-75 = tested on: SNB-75
SW-620 = tested on: SW-620
HCT-116 = tested on: HCT-116
Hs-578T = tested on: Hs-578T
HT-29 = tested on: HT-29
MCF7 = tested on: MCF7
COLO 205 = tested on: COLO 205
NCI-H460 = tested on: NCI-H460
UO-31 = tested on: UO-31
MDA-MB-435 = tested on: MDA-MB-435
RXF 393 = tested on: RXF 393
UACC-62 = tested on: UACC-62
HOP-92 = tested on: HOP-92
Malme-3M = tested on: Malme-3M
SN12C = tested on: SN12C
SF-295 = tested on: SF-295
UACC-257 = tested on: UACC-257
SK-OV-3 = tested on: SK-OV-3
DU-145 = tested on: DU-145
SK-MEL-5 = tested on: SK-MEL-5
CCRF-CEM = tested on: CCRF-CEM
EKVX = tested on: EKVX
LOX IMVI = tested on: LOX IMVI
PC-3 = tested on: PC-3
786-0 = tested on: 786-0
CAKI-1 = tested on: CAKI-1
NCI-H522 = tested on: NCI-H522
SK-MEL-2 = tested on: SK-MEL-2
TK-10 = tested on: TK-10
SF-268 = tested on: SF-268
HOP-62 = tested on: HOP-62
MDA-N = tested on: MDA-N
HL-60 = tested on: HL-60
MOLT-4 = tested on: MOLT-4
SNB-19 = tested on: SNB-19
HCT-15 = tested on: HCT-15
A498 = tested on: A498
IGROV-1 = tested on: IGROV-1
U-251 = tested on: U-251
RPMI-8226 = tested on: RPMI-8226
ACHN = tested on: ACHN
OVCAR-8 = tested on: OVCAR-8
NCI/ADR-RES = tested on: NCI/ADR-RES
OVCAR-4 = tested on: OVCAR-4

COc1cccc(C2c3cc4c(cc3OC(Nc3ccccc3)C2C)OCO4)c1OC (stereo unspecified)
GI50 (BT-549): 9.12 µM (inactive) | GI50 (K562): 2.64 µM (inactive) | GI50 (T47D): 5.14 µM (inactive) | GI50 (KM12): 4.02 µM (inactive) | GI50 (SF-539): 13.2 µM (inactive) | GI50 (MDA-MB-231): 13.7 µM (inactive) | GI50 (OVCAR-5): 44.5 µM (inactive) | GI50 (OVCAR-3): 5.36 µM (inactive) | GI50 (NCI-H23): 42 µM (inactive) | GI50 (M14): 67.6 µM (inactive) | GI50 (SK-MEL-28): 41.3 µM (inactive) | GI50 (HCC 2998): 74.1 µM (inactive) | GI50 (A549): 6.04 µM (inactive) | GI50 (SR): 0.809 µM (active) | GI50 (NCI-H226): 1.84 µM (inactive) | GI50 (SNB-75): 20.5 µM (inactive) | GI50 (SW-620): 7.85 µM (inactive) | GI50 (HCT-116): 3.52 µM (inactive) | GI50 (Hs-578T): 3.08 µM (inactive) | GI50 (HT-29): 11.2 µM (inactive) | GI50 (MCF7): 6.89 µM (inactive) | GI50 (COLO 205): 4.98 µM (inactive) | GI50 (NCI-H460): 3.43 µM (inactive) | GI50 (UO-31): 4.19 µM (inactive) | GI50 (MDA-MB-435): 14.8 µM (inactive) | GI50 (RXF 393): 3.66 µM (inactive) | GI50 (UACC-62): 9.55 µM (inactive) | GI50 (HOP-92): 5.43 µM (inactive) | GI50 (Malme-3M): 6.31 µM (inactive) | GI50 (SN12C): 6.4 µM (inactive) | GI50 (SF-295): 5.55 µM (inactive) | GI50 (UACC-257): 35.6 µM (inactive) | GI50 (SK-OV-3): 7.59 µM (inactive) | GI50 (DU-145): 7.08 µM (inactive) | GI50 (SK-MEL-5): 6.5 µM (inactive) | GI50 (CCRF-CEM): 2.88 µM (inactive) | GI50 (EKVX): 19.8 µM (inactive) | GI50 (LOX IMVI): 3.77 µM (inactive) | GI50 (PC-3): 4.47 µM (inactive) | GI50 (786-0): 10.6 µM (inactive) | GI50 (CAKI-1): 3.87 µM (inactive) | GI50 (NCI-H522): 3.36 µM (inactive) | GI50 (SK-MEL-2): 4.55 µM (inactive) | GI50 (TK-10): 6.46 µM (inactive) | GI50 (SF-268): 8.73 µM (inactive) | GI50 (HOP-62): 15 µM (inactive) | GI50 (MDA-N): 34.8 µM (inactive) | GI50 (HL-60): 2.1 µM (inactive) | GI50 (MOLT-4): 1.81 µM (inactive) | GI50 (SNB-19): > 100 µM (inactive) | GI50 (HCT-15): 4.37 µM | GI50 (A498): 11.5 µM (inactive) | GI50 (IGROV-1): 14.9 µM (inactive) | GI50 (U-251): 5.94 µM (inactive) | GI50 (RPMI-8226): 1.64 µM (inactive) | GI50 (ACHN): 3.94 µM (inactive) | GI50 (OVCAR-8): 16.3 µM (inactive)

COC(=O)C1(Cc2ccccc2)Cc2cc3c(cc2C1O)CCC3 (stereo unspecified)
GI50 (BT-549): 15.5 µM (inactive) | GI50 (K562): 19.7 µM (inactive) | GI50 (T47D): 28.5 µM (inactive) | GI50 (KM12): 21.3 µM (inactive) | GI50 (SF-539): 18.2 µM (inactive) | GI50 (MDA-MB-231): 18.3 µM (inactive) | GI50 (OVCAR-5): 13.6 µM (inactive) | GI50 (OVCAR-3): 16.4 µM (inactive) | GI50 (NCI-H23): 15 µM (inactive) | GI50 (SK-MEL-28): 16.1 µM (inactive) | GI50 (HCC 2998): 24.9 µM (inactive) | GI50 (A549): 24 µM (inactive) | GI50 (SR): 26.7 µM (inactive) | GI50 (NCI-H226): 19.5 µM (inactive) | GI50 (SNB-75): 34.8 µM (inactive) | GI50 (SW-620): 13.2 µM (inactive) | GI50 (HCT-116): 17.9 µM (inactive) | GI50 (Hs-578T): 13.8 µM (inactive) | GI50 (HT-29): 13.8 µM (inactive) | GI50 (COLO 205): 21.3 µM (inactive) | GI50 (NCI-H460): 30.1 µM (inactive) | GI50 (UO-31): > 10 µM (inactive) | GI50 (NCI/ADR-RES): 18.4 µM (inactive) | GI50 (MDA-MB-435): 16.3 µM (inactive) | GI50 (RXF 393): 15 µM (inactive) | GI50 (UACC-62): 16.9 µM (inactive) | GI50 (HOP-92): 16 µM (inactive) | GI50 (Malme-3M): 14 µM (inactive) | GI50 (SN12C): 17.7 µM (inactive) | GI50 (SF-295): 27 µM (inactive) | GI50 (UACC-257): 18.2 µM (inactive) | GI50 (SK-OV-3): 17 µM (inactive) | GI50 (DU-145): 15.2 µM (inactive) | GI50 (SK-MEL-5): 15.9 µM (inactive) | GI50 (CCRF-CEM): 16.1 µM (inactive) | GI50 (EKVX): 22.9 µM (inactive) | GI50 (LOX IMVI): 19.1 µM (inactive) | GI50 (PC-3): 19 µM (inactive) | GI50 (786-0): 13.6 µM (inactive) | GI50 (CAKI-1): 11.6 µM (inactive) | GI50 (NCI-H522): 17.4 µM (inactive) | GI50 (TK-10): 25.9 µM (inactive) | GI50 (SF-268): 30.3 µM (inactive) | GI50 (HOP-62): 19.3 µM (inactive) | GI50 (MDA-N): 17.5 µM (inactive) | GI50 (HL-60): 24.5 µM (inactive) | GI50 (MOLT-4): 17.5 µM (inactive) | GI50 (OVCAR-4): 15 µM (inactive) | GI50 (HCT-15): 30.5 µM | GI50 (A498): 19.7 µM (inactive) | GI50 (IGROV-1): 15.8 µM (inactive) | GI50 (RPMI-8226): 22.7 µM (inactive) | GI50 (ACHN): 17.1 µM (inactive) | GI50 (OVCAR-8): 25.6 µM (inactive)
